Results reported in patent US20080167532A1, “ASSESSING CANCER TREATMENT RESPONSIVENESS” (Mayo Foundation for Medical Education and Research, priority 2006, published 2008).
pIC50: −log10 of the molar value.

Tests used:
DRO cells [1] = experiment: DRO cell proliferation (cell counts over six days); assay type: cell-based, human; details: DRO cells treated every 48 hours over six days; read-out: IC50, concentration at which 50% of cell proliferation was inhibited
Description: . Cells were treated every 48 hours over six days. Cell numbers were counted and data were plotted as mean values ±S.D. The thiazolidinediones inhibited cell proliferation of DRO cells in a dose responsive fashion (FIG. 3B). […]. The EC50 concentrations were in close agreement with the IC50 concentrations for each compound (FIG. 3B).
. […] Cell numbers were counted and data were plotted as mean values ±S.D. (FIG. 9D).
DRO90-1 (DRO) and ARO81 (ARO) cells were derived from primary cultures of human anaplastic thyroid carcinoma tumors that were obtained from Dr. G. J. Juillard (University of California-Los Angeles, Los Angeles, Calif.), and KTC-2 and KTC3 cells were obtained from Dr. Junichi Kurebayashi (Podtcheko et al., J. Clin. Endocrinol. Metab., 88:1889-1896 (2003) and Pushkarev et al., Molecular mechanisms of the Effects of Low Concentrations of Taxol in Anaplastic Thyroid Cancer Cells. Endocrinology: en. 2004-0127 (2004)). Cells were cultured in RPMI 1640 medium (Cellgro, Herndon Va.) supplemented with 10% charcoal-stripped fetal bovine serum (Hyclone), non-essential amino acids, sodium pyruvate, and penicillin-streptomycin-amphotericin B at 37° C. in a humidified atmosphere with 5% CO^2. Charcoal-stripped serum was used to exclude endogenous PPAR ligands contained in serum. For proliferation studies, cells were plated in triplicate in 12-well culture plates at initial concentrations of 2×10^4 cells/well. After overnight incubation, cells were treated with 10 nM RS5444 or DMSO diluent (Sigma) for 6 days with medium, and drug changed every 48 hours. After 6 days, cells were washed with PBS (Cellgro), trypsinized, and counted by Beckman Coulter Counter (Beckman Instruments, Fullerton Calif.). […]. Cells were treated with either DMSO or 10 nM RS5444 (24 hours). After treatment, phase images were obtained on an inverted microscope. For real time PCR studies, cells were plated in 60 mm plates at 50% confluence and treated with 10 nM RS5444 for indicated incubation periods. […].
Cells were either plated in triplicate at 7.5×10^4 cells/mL in 6-well plates or 2×10^4 cells/well in 12-well plates, allowed to adhere overnight, and then transfected for 24 to 72 hours with 2 to 5 μg of either scrambled, p21^WAF1/CIP1 (1022539), RhoB (SI00058933) or PPAR-γ-specific siRNA duplexes (Qiagen Valencia, Calif.) using RNAiFect reagent (Qiagen). The DNA target sequence for PPAR-γ was 5′-[…]-3′. After transfection, cells in the 6-well plates were treated with either DMSO diluent or 10 nM RS5444 for 24 hours and then analyzed by either real time PCR or immunoblotting. Cells in the 12-well plates were exposed for 6 days with medium, and drug changed every 48 hours. After 6 days, cells were washed with PBS (Cellgro), trypsinized, and counted by Beckman Coulter Counter.

DRO cells [2] = experiment: Affymetrix Plus 2.0 array, nucleic acid expression in DRO cells in cell culture; assay type: cell-based, human; details: 10 nM single dose
Description: (§1) Affymetrix Plus 2.0 arrays were used to identify nucleic acids altered between control vehicle-treated and RS5444-treated ATC cells from cell culture and tumors implanted ectopically into athymic nude mice. Cells in culture were treated with a single dose of 10 nM RS5444 for either 2, 6, or 24 hours. Animals were treated with 0.025% RS5444 after implantation of 1×10^6 DRO cells. Animals were fed a diet including 0.025% RS5444 for 35 days, and tumor volume was measured weekly. Tumor tissues were removed, RNA was isolated, and nucleic acid expression was analyzed. Examples of some nucleic acids, the expression of which was altered in both the animal derived tumors and cells in culture, are presented in Table 1. Some of the nucleic acids regulated by PPARγ in ATC cells (e.g., BMP2, MMP14, ANGPTL4, and ITGA5) are secreted polypeptides (Table 1).

[3] = test system: ATC tumors implanted into athymic nude mice; experiment: Affymetrix Plus 2.0 array, nucleic acid expression in DRO tumors implanted into athymic nude mice; assay type: in vivo
Description: as §1

Question: What does the source list for `Cc1cc(Oc2ccc3nc(COc4ccc(CC5SC(=O)NC5=O)cc4)n(C)c3c2)cc(C)c1N` (centres unmarked) [RS5444]?
Answer: pIC50 (DRO cells [1]): ~9.10; Fold change in vitro, ADRB1 (DRO cells [2]; ADRB1, 2 h): −3.3 fold; Fold change in vitro, ADRB1 (DRO cells [2]; ADRB1, 24 h): −2.2 fold; Fold change in vitro, ANGPTL4 (DRO cells [2]; ANGPTL4, 2 h): 5.3 fold; Fold change in vitro, ANGPTL4 (DRO cells [2]; ANGPTL4, 6 h): 4.9 fold; Fold change in vitro, ANGPTL4 (DRO cells [2]; ANGPTL4, 24 h): 8.4 fold; Fold change in vitro, BMP2 (DRO cells [2]; BMP2, 24 h): 2.5 fold; Fold change in vitro, HR (DRO cells [2]; 2 h): 2 fold; Fold change in vitro, HR (DRO cells [2]; 24 h): 2.3 fold; Fold change in vitro, IL1B (DRO cells [2]; IL1B, 24 h): 14.2 fold; Fold change in vitro, ITGA5 (DRO cells [2]; ITGA5, 24 h): 2.2 fold; Fold change in vitro, LMAN1 (DRO cells [2]; LMAN1, 6 h): −2 fold; Fold change in vitro, MMP14 (DRO cells [2]; MMP14, 2 h): 5.4 fold; Fold change in vitro, MMP14 (DRO cells [2]; MMP14, 24 h): 16.9 fold; Fold change in vitro, RhoB (DRO cells [2]; 2 h): 3.4 fold; Fold change in vitro, RhoB (DRO cells [2]; 6 h): 4.1 fold; Fold change in vitro, RhoB (DRO cells [2]; 24 h): 2.8 fold; Fold change in vivo, ADRB1 ([3]; ADRB1, 0.025% in diet for 35 days): −2 fold; Fold change in vivo, ANGPTL4 ([3]; ANGPTL4, 0.025% in diet for 35 days): 2 fold; Fold change in vivo, BMP2 ([3]; BMP2, 0.025% in diet for 35 days): 3.8 fold; Fold change in vivo, HR ([3]; HR, 0.025% in diet for 35 days): 1.5 fold; Fold change in vivo, IL1B ([3]; IL1B, 0.025% in diet for 35 days): 5.6 fold; Fold change in vivo, ITGA5 ([3]; ITGA5, 0.025% in diet for 35 days): 1.9 fold; Fold change in vivo, LMAN1 ([3]; LMAN1, 0.025% in diet for 35 days): −4.3 fold; Fold change in vivo, MMP14 ([3]; MMP14, 0.025% in diet for 35 days): 2.5 fold; Fold change in vivo, RhoB ([3]; RhoB, 0.025% in diet for 35 days): 2 fold
